Reference: patent EP0931079B1, “SUBSTITUTED BENZOCYCLOHEPTAPYRIDINE DERIVATIVES USEFUL FOR INHIBITION OF FARNESYL PROTEIN TRANSFERASE” (SCHERING CORPORATION, priority 1996, dated 1998)

Experiments:
Human tumor cells = assay: Soft Agar Assay (anchorage-independent growth, colony outgrowth); format: cell-based; settings: colonies after 10-16 days at 37°C, range stated for the listed compounds as a group, read-out: Soft Agar FPT IC50
Experimental: Anchorage-independent growth is a characteristic of tumorigenic cell lines. Human tumor cells are suspended in growth medium containing 0.3% agarose and an indicated concentration of a famesyl transferase inhibitor. The solution is overlayed onto growth medium solidified with 0.6% agarose containing the same concentration of farnesyl transferase inhibitor as the top layer. After the top layer is solidified, plates are incubated for 10-16 days at 37°C under 5% CO2 to allow colony outgrowth. After incubation, the colonies are stained by overlaying the agar with a solution of MTT (3-[4,5-dimethyl-thiazol-2-yl]-2,5-diphenyltetrazolium bromide, Thiazolyl blue) (1 mg/mL in PBS). Colonies can be counted and the IC50's can be determined.

[1] = biological target: T1, farnesyl protein transferase (Homo sapiens, UniProt P49354+P49356); assay: FPT IC50 (K-ras), inhibition of farnesyl protein transferase, in vitro enzyme assay; format: biochemical; settings: range stated for the listed compounds as a group
Experimental: (§1) FPT IC50 (inhibition of farnesyl protein transferase, in vitro enzyme assay) and COS Cell IC50 (Cell-Based Assay) were determined following the assay procedures described in WO 95/10516, published April 20, 1995. GGPT IC50 (inhibition of geranylgeranyl protein transferase, in vitro enzyme assay), Cell Mat Assay, and anti-tumor activity (in vivo anti-tumor studies) could be determined by the assay procedures described in WO 95/10516. The disclosure of WO 95/10516 is incorporated herein by reference thereto.

COS Cell = COS Cell IC50 (Cell-Based Assay); settings: range stated for the listed compounds as a group
Experimental: as §1

[2] = biological target: T1, farnesyl protein transferase; assay: FPT IC50 (H-ras), inhibition of farnesyl protein transferase, in vitro enzyme assay; format: biochemical; settings: range stated for the listed compounds as a group
Experimental: as §1

SMILES | IC50 (Human tumor cells) [nM] | IC50 [1] [nM] | IC50 (COS Cell) [nM] | IC50 [2] [nM]
NC(=O)CN1CCC(CC(=O)N2CCC([C@H]3c4ncc(Br)cc4CCc4cc(Cl)cc(Br)c43)CC2)CC1 [Compound 2.0] | ≥ 60 | 8.6 to 51.9 | 6 to 840 | 1.8 to 28
CON(C)C(=O)CN1CCC(CC(=O)N2CCC([C@H]3c4ncc(Br)cc4CCc4cc(Cl)cc(Br)c43)CC2)CC1 [Compound 3.0] | ≥ 60 | 8.6 to 51.9 | 6 to 840 | 1.8 to 28
CCN(CC)C(=O)CN1CCC(CC(=O)N2CCC([C@H]3c4ncc(Br)cc4CCc4cc(Cl)cc(Br)c43)CC2)CC1 [Compound 4.0] | ≥ 60 | 8.6 to 51.9 | 6 to 840 | 1.8 to 28
O=C(CN1CCC(CC(=O)N2CCC([C@H]3c4ncc(Br)cc4CCc4cc(Cl)cc(Br)c43)CC2)CC1)NCc1ccccc1 [Compound 5.0] |  | 8.6 to 51.9 | 6 to 840 | 1.8 to 28
O=C(CN1CCC(CC(=O)N2CCC([C@H]3c4ncc(Br)cc4CCc4cc(Cl)cc(Br)c43)CC2)CC1)N[C@@H]1O[C@H](CO)[C@H](O)[C@H](O)[C@H]1O [Compound 6.0] | ≥ 60 | 8.6 to 51.9 | 6 to 840 | 1.8 to 28
O=C(CC1CCN(CC(=O)N2CCOCC2)CC1)N1CCC([C@H]2c3ncc(Br)cc3CCc3cc(Cl)cc(Br)c32)CC1 [Compound 7.0] | ≥ 60 | 8.6 to 51.9 | 6 to 840 | 1.8 to 28
CC(C)(C)OC(=O)N1CCN(C(=O)CN2CCC(CC(=O)N3CCC([C@H]4c5ncc(Br)cc5CCc5cc(Cl)cc(Br)c54)CC3)CC2)CC1 [Compound 8.0] | ≥ 60 | 8.6 to 51.9 | 6 to 840 | 1.8 to 28
O=C(CC1CCN(CC(=O)N2CCNCC2)CC1)N1CCC([C@H]2c3ncc(Br)cc3CCc3cc(Cl)cc(Br)c32)CC1 [Compound 9.0] | ≥ 60 | 8.6 to 51.9 | 6 to 840 | 1.8 to 28
O=C(CC1CCN(CC(=O)N2CCc3ccccc32)CC1)N1CCC([C@H]2c3ncc(Br)cc3CCc3cc(Cl)cc(Br)c32)CC1 [Compound 10.0] |  |  | 6 to 840 | 1.8 to 28
CC(C)(C)OC(=O)CN1CCC(CC(=O)N2CCC([C@H]3c4ncc(Br)cc4CCc4cc(Cl)cc(Br)c43)CC2)CC1 [Compound 11.0] |  |  |  | 1.8 to 28
O=C(CC1CCN(CC(O)CO)CC1)N1CCC([C@H]2c3ncc(Br)cc3CCc3cc(Cl)cc(Br)c32)CC1 (stereo partly shown) [Compound 20.0] | ≥ 60 |  | 6 to 840 | 1.8 to 28
